Where a name gives a salt, the structure may show the parent alone.
First: Cn1c(=O)c2c(nc(N3CC[C@H](N)C3)n2Cc2ccccc2C#N)n(C)c1=O (as salt: HCl) [Example 8, (S) 2-(8-(3-Aminopyrrolidin-1-yl)-1,3-dimethyl-2,6-dioxo-1,2,3,6-tetrahydropurin-7-ylmethyl)benzonitrile]
Second: Cn1c(=O)c2c(nc(N3CC[C@H](N)C3)n2Cc2ccccc2Br)n(C)c1=O (as salt: HCl) [Example 12, (S) 8-(3-Aminopyrrolidin-1-yl)-7-(2-bromobenzyl)-1,3-dimethyl-3,7-dihydropurine-2,6-dione]
The melting point of the first is lower: 104 to 117 °C for the first, 215 to 217 °C for the second.

In the case of `Cn1c(=O)c2c(nc(N3CC[C@H](N)C3)n2Cc2ccccc2)n(C)c1=O` (as salt: HCl) [Example 3, (S) 8-(3-Aminopyrrolidin-1-yl)-7-benzyl-1,3-dimethyl-3,7-dihydropurine-2,6-dione], the melting point is reported as 166 to 169 °C.
